Measurements taken from patent US20260226068A1, “IMIDAZOTRIAZINE IL-17A MODULATORS AND USES THEREOF” (DICE ALPHA, INC., priority 2023, published 2026).

Key:
IL-17A/A = biological target: T1, IL-17A/A (Homo sapiens, UniProt Q16552); test: IL-17A/A HEK-Blue cell assay (SEAP reporter); type: cell-based; details: HEK-Blue IL-17A reporter cells, IL17A/A 5 ng/mL, 20 hours, SEAP read at A630; read-out: HEK-Blue IL17AA (IC50 for IL-17A/A inhibition)
T1 construct: purchased Genscript Z03228
T1 sequence (Q16552 24-155): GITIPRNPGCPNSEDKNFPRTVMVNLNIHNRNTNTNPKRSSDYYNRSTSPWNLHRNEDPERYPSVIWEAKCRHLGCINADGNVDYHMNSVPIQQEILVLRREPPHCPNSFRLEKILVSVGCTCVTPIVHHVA

IL-17A/F = biological target: T2, IL-17A/F (Homo sapiens, UniProt Q16552+Q96PD4); test: IL-17A/F HEK-Blue cell assay (SEAP reporter); type: cell-based; details: HEK-Blue IL-17A reporter cells, IL17A/F 5 ng/mL, 20 hours, SEAP read at A630; read-out: HEK-Blue IL17AF (IC50 for IL-17A/F inhibition)
T2 construct: purchased R&D Systems
T2 sequence (Q16552 24-155): T1 sequence (Q16552 24-155)
T2 sequence (Q96PD4 31-163): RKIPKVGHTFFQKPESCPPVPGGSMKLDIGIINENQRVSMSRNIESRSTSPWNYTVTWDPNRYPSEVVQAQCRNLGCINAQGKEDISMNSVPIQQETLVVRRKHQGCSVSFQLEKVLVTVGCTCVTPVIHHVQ

Compound	IC50 (IL-17A/A)	IC50 (IL-17A/F)
CCn1nccc1C(=O)N[C@H](c1cn2nc(C[C@H]3CC(F)(F)CNC3=O)c(C3CCOCC3)nc2n1)C1CCC(F)(F)CC1 [Compound 279]	< 100 nM	> 1000 nM
Cn1nccc1C(=O)N[C@H](c1cn2nc(C[C@H]3C[C@@H](C(F)(F)F)CNC3=O)c(C3(C)CCOCC3)nc2n1)C1CCC(F)(F)CC1 [Compound 280, N—((S)-(4,4-difluorocyclohexyl)(3-(4-methyltetrahydro-2H-pyran-4-yl)-2-(((3R,5R)-2-oxo-5-(trifluoromethyl)piperidin-3-yl)methyl)imidazo[1,2-b][1,2,4]triazin-6-yl)methyl)-1-methyl-1H-pyrazole-5-carboxamide]	< 100 nM	> 1000 nM
CCn1nccc1C(=O)N[C@H](c1cn2nc(C[C@H]3C[C@@H](C(F)(F)F)CC3=O)c(C3CCOCC3)nc2n1)C(C1CC1)C1CC1 [Compound 281]	< 100 nM	100 to 1000 nM
CCn1nccc1C(=O)N[C@H](c1cn2nc(C[C@H]3C[C@@H](C(F)(F)F)CNC3=O)c(N3CCO[C@H](C)C3)nc2n1)C1CCC(F)(F)CC1 [Compound 282, N—((S)-(4,4-difluorocyclohexyl)(3-((R)-2-methylmorpholino)-2-(((3R,5R)-2-oxo-5-(trifluoromethyl)piperidin-3-yl)methyl)imidazo[1,2-b][1,2,4]triazin-6-yl)methyl)-1-ethyl-1H-pyrazole-5-carboxamide]	< 100 nM	< 100 nM
CCn1nccc1C(=O)N[C@H](c1cn2nc(C[C@H]3C[C@@H](C(F)(F)F)CNC3=O)c(N3CCO[C@@H](C)C3)nc2n1)C1CCC(F)(F)CC1 [Compound 283, N—((S)-(4,4-difluorocyclohexyl)(3-((S)-2-methylmorpholino)-2-(((3R,5R)-2-oxo-5-(trifluoromethyl)piperidin-3-yl)methyl)imidazo[1,2-b][1,2,4]triazin-6-yl)methyl)-1-ethyl-1H-pyrazole-5-carboxamide]	< 100 nM	100 to 1000 nM
CCn1nccc1C(=O)N[C@H](c1cn2nc(C[C@H]3C[C@@H](C(F)(F)F)CNC3=O)c([C@@H]3CCNC3)nc2n1)C1CCC(F)(F)CC1 [Compound 284, N-((1S)-(4,4-difluorocyclohexyl)(2-(((3R,5R)-2-oxo-5-(trifluoromethyl)piperidin-3-yl)methyl)-3-(pyrrolidin-3-yl)imidazo[1,2-b][1,2,4]triazin-6-yl)methyl)-1-ethyl-1H-pyrazole-5-carboxamide]	100 to 1000 nM	> 1000 nM
CCn1nccc1C(=O)N[C@H](c1cn2nc(C[C@H]3C[C@@H](C(F)(F)F)CNC3=O)c(CNC)nc2n1)C1CCC(F)(F)CC1 [Compound 286, N—((S)-(4,4-difluorocyclohexyl)(3-((methylamino)methyl)-2-(((3R,5R)-2-oxo-5-(trifluoromethyl)piperidin-3-yl)methyl)imidazo[1,2-b][1,2,4]triazin-6-yl)methyl)-1-ethyl-1H-pyrazole-5-carboxamide]	100 to 1000 nM	> 1000 nM
CCn1nccc1C(=O)N[C@H](c1cn2nc(C[C@H]3C[C@@H](C(F)(F)F)CNC3=O)c(CN(C)C)nc2n1)C1CCC(F)(F)CC1 [Compound 287, N—((S)-(4,4-difluorocyclohexyl)(3-((dimethylamino)methyl)-2-(((3R,5R)-2-oxo-5-(trifluoromethyl)piperidin-3-yl)methyl)imidazo[1,2-b][1,2,4]triazin-6-yl)methyl)-1-ethyl-1H-pyrazole-5-carboxamide]	100 to 1000 nM	> 1000 nM

Next, values leading:

IC50 (IL-17A/A)	IC50 (IL-17A/F)	Compound
< 100 nM	100 to 1000 nM	CCn1nccc1C(=O)N[C@H](c1cn2nc(C[C@H]3C[C@@H](C(F)(F)F)CNC3=O)c(C34CCCC(C3)OC4)nc2n1)C1CCC(F)(F)CC1 (stereo partly drawn) [Compound 254, N-((1S)-(3-(6-oxabicyclo[3.2.1]octan-1-yl)-2-(((3R,5R)-2-oxo-5-(trifluoromethyl)piperidin-3-yl)methyl)imidazo[1,2-b][1,2,4]triazin-6-yl)(4,4-difluorocyclohexyl)methyl)-1-ethyl-1H-pyrazole-5-carboxamide]
< 100 nM	100 to 1000 nM	CCn1nccc1C(=O)N[C@H](c1cn2nc(C[C@H]3C[C@@H](C(F)(F)F)CNC3=O)c(C34COC(C3)C4)nc2n1)C1CCC(F)(F)CC1 [Compound 255, N—((S)-(3-(2-oxabicyclo[2.1.1]hexan-4-yl)-2-(((3R,5R)-2-oxo-5-(trifluoromethyl)piperidin-3-yl)methyl)imidazo[1,2-b][1,2,4]triazin-6-yl)(4,4-difluorocyclohexyl)methyl)-1-ethyl-1H-pyrazole-5-carboxamide]
< 100 nM	100 to 1000 nM	CC(F)(F)c1nocc1C(=O)N[C@H](c1cn2nc(C[C@H]3C[C@@H](C(F)(F)F)CNC3=O)c(C3CCOCC3)nc2n1)C1CCC(F)(F)CC1 [Compound 260, N—((S)-(4,4-difluorocyclohexyl)(2-(((3R,5R)-2-oxo-5-(trifluoromethyl)piperidin-3-yl)methyl)-3-(tetrahydro-2H-pyran-4-yl)imidazo[1,2-b][1,2,4]triazin-6-yl)methyl)-3-(1,1-difluoroethyl)isoxazole-4-carboxamide]
< 100 nM	100 to 1000 nM	CC(C)c1nc2nc([C@@H](NC(=O)c3ccnn3C)C3CCC(F)(F)CC3)cn2nc1C[C@H]1C[C@@H](C(F)(F)F)CNC1=O [Compound 261, N—((S)-(4,4-difluorocyclohexyl)(3-isopropyl-2-(((3R,5R)-2-oxo-5-(trifluoromethyl)piperidin-3-yl)methyl)imidazo[1,2-b][1,2,4]triazin-6-yl)methyl)-1-methyl-1H-pyrazole-5-carboxamide]
< 100 nM	100 to 1000 nM	Cn1nccc1C(=O)N[C@H](c1cn2nc(C[C@H]3C[C@@H](C(F)(F)F)CNC3=O)c(C3CCC(F)(F)CC3)nc2n1)C1CCC(F)(F)CC1 [Compound 262, N—((S)-(4,4-difluorocyclohexyl)(3-(4,4-difluorocyclohexyl)-2-(((3R,5R)-2-oxo-5-(trifluoromethyl)piperidin-3-yl)methyl)imidazo[1,2-b][1,2,4]triazin-6-yl)methyl)-1-methyl-1H-pyrazole-5-carboxamide]
< 100 nM	> 1000 nM	CCn1nccc1C(=O)N[C@H](c1cn2nc(C[C@H]3C[C@@H](C(F)(F)F)CNC3=O)c(C3(OC)CCOCC3)nc2n1)C1CCC(F)(F)CC1 [Compound 269, N—((S)-(4,4-difluorocyclohexyl)(3-(4-methoxytetrahydro-2H-pyran-4-yl)-2-(((3R,5R)-2-oxo-5-(trifluoromethyl)piperidin-3-yl)methyl)imidazo[1,2-b][1,2,4]triazin-6-yl)methyl)-1-ethyl-1H-pyrazole-5-carboxamide]
< 100 nM	> 1000 nM	CCn1nccc1C(=O)N[C@H](c1cn2nc(C[C@H]3C[C@@H](C(F)(F)F)CNC3=O)c(C3(OC)CCC(F)(F)CC3)nc2n1)C1CCC(F)(F)CC1 [Compound 270, N—((S)-(3-(4,4-difluoro-1-methoxycyclohexyl)-2-(((3R,5R)-2-oxo-5-(trifluoromethyl)piperidin-3-yl)methyl)imidazo[1,2-b][1,2,4]triazin-6-yl)(4,4-difluorocyclohexyl)methyl)-1-ethyl-1H-pyrazole-5-carboxamide]
< 100 nM	> 1000 nM	CCn1nccc1C(=O)N[C@H](c1cn2nc(C[C@H]3C[C@@H](C(F)(F)F)CNC3=O)c(C(C)(F)F)nc2n1)C1CCC(F)(F)CC1 [Compound 273, N—((S)-(4,4-difluorocyclohexyl)(3-(1,1-difluoroethyl)-2-(((3R,5R)-2-oxo-5-(trifluoromethyl)piperidin-3-yl)methyl)imidazo[1,2-b][1,2,4]triazin-6-yl)methyl)-1-ethyl-1H-pyrazole-5-carboxamide]
< 100 nM	100 to 1000 nM	CCn1nccc1C(=O)N[C@H](c1cn2nc(C[C@H]3C[C@@H](C(F)(F)F)CNC3=O)c(CCOC)nc2n1)C1CCC(F)(F)CC1 [Compound 276, N—((S)-(4,4-difluorocyclohexyl)(3-(2-methoxyethyl)-2-(((3R,5R)-2-oxo-5-(trifluoromethyl)piperidin-3-yl)methyl)imidazo[1,2-b][1,2,4]triazin-6-yl)methyl)-1-ethyl-1H-pyrazole-5-carboxamide]
< 100 nM	100 to 1000 nM	Cn1nccc1C(=O)N[C@H](c1cn2nc(C[C@H]3C[C@@H](C(F)(F)F)CNC3=O)c(C3CCOCC3)nc2n1)[C@@H]1CCCC(F)(F)C1 [Compound 277, N—((S)—((R)-3,3-difluorocyclohexyl)(2-(((3R,5R)-2-oxo-5-(trifluoromethyl)piperidin-3-yl)methyl)-3-(tetrahydro-2H-pyran-4-yl)imidazo[1,2-b][1,2,4]triazin-6-yl)methyl)-1-methyl-1H-pyrazole-5-carboxamide]
< 100 nM	100 to 1000 nM	Cn1nccc1C(=O)N[C@H](c1cn2nc(C[C@H]3C[C@@H](C(F)(F)F)CNC3=O)c(C3CCOCC3)nc2n1)[C@H]1CCCC(F)(F)C1 [Compound 278, N—((S)—((S)-3,3-difluorocyclohexyl)(2-(((3R,5R)-2-oxo-5-(trifluoromethyl)piperidin-3-yl)methyl)-3-(tetrahydro-2H-pyran-4-yl)imidazo[1,2-b][1,2,4]triazin-6-yl)methyl)-1-methyl-1H-pyrazole-5-carboxamide]
